# Laboratory results from the supplement of paper PMC10307832.
# Columns and labels:
# Test in all cases: relative viability (nuclei count vs DMSO), 5 days (fraction); higher = more cells survive
# EKVX = system: EKVX
# How it was run: (§1)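 The day after seeding in 1536-well plates, lung cancer cell lines were treated by pin tool with a single drug, or with a fixed anchor-drug dose together with five library-drug doses (not always all listed) in √10 steps. After 5 days, a combined fix-and-stain solution (final 0.05% Triton X-100, 1% formaldehyde, 1 ug/ml Hoechst) was added. Nuclei counted on 4× images gave relative viability as treated counts over vehicle counts, reported as the median of duplicate plates.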
# NCI-H23 = system: NCI-H23
# How it was run: as §1
# NCI-H596 = system: NCI-H596
# How it was run: as §1
# 201T = system: 201T
# How it was run: as §1
# NCI-H2126 = system: NCI-H2126
# How it was run: as §1
# LCLC-103H = system: LCLC-103H
# How it was run: as §1
# NCI-H727 = system: NCI-H727
# How it was run: as §1
# NCI-H3122 = system: NCI-H3122
# How it was run: as §1
# NCI-H2405 = system: NCI-H2405
# How it was run: as §1
# NCI-H661 = system: NCI-H661
# How it was run: as §1
# HARA = system: HARA
# How it was run: as §1
# LOU-NH91 = system: LOU-NH91
# How it was run: as §1
# HOP-62 = system: HOP-62
# How it was run: as §1
# SK-LU-1 = system: SK-LU-1
# How it was run: as §1
# NCI-H2228 = system: NCI-H2228
# How it was run: as §1
# NCI-H1975 = system: NCI-H1975
# How it was run: as §1
# PC-3 [JPC-3] = system: PC-3 [JPC-3]
# How it was run: as §1
# NCI-H650 = system: NCI-H650
# How it was run: as §1
# HCC-827 = system: HCC-827
# How it was run: as §1
# SW 900 = system: SW 900
# How it was run: as §1
# COR-L 105 = system: COR-L 105
# How it was run: as §1
# H3255 = system: H3255
# How it was run: as §1
# ChaGo-K-1 = system: ChaGo-K-1
# How it was run: as §1
smiles,measurement,setting,value
Cc1csc(=NC2CCCCC2)n1/N=C/c1ccc(O)c(O)c1O [MIM1] + COc1cccc2cc(-c3nc([C@H]4CC[C@H](C(=O)O)CC4)n4ncnc(N)c34)[nH]c12 [OSI-027] (partner 0.5 µM),relative viability,EKVX; first compound 0.2 µM,0.803
same,relative viability,EKVX; first compound 0.6325 µM,0.767
same,relative viability,EKVX; first compound 2 µM,0.719
same,relative viability,EKVX; first compound 6.325 µM,0.53
same,relative viability,EKVX; first compound 20 µM,0.583
same,relative viability,NCI-H23; first compound 0.2 µM,0.53
same,relative viability,NCI-H23; first compound 2 µM,0.563
same,relative viability,NCI-H23; first compound 6.325 µM,0.306
same,relative viability,NCI-H23; first compound 20 µM,0.156
same,relative viability,NCI-H596; first compound 0.2 µM,0.622
same,relative viability,NCI-H596; first compound 0.6325 µM,0.757
same,relative viability,NCI-H596; first compound 2 µM,0.72
same,relative viability,NCI-H596; first compound 6.325 µM,0.628
same,relative viability,NCI-H596; first compound 20 µM,0.659
same,relative viability,201T; first compound 0.2 µM,0.739
same,relative viability,201T; first compound 0.6325 µM,0.834
same,relative viability,201T; first compound 2 µM,0.745
same,relative viability,201T; first compound 6.325 µM,0.478
same,relative viability,201T; first compound 20 µM,0.272
same,relative viability,NCI-H2126; first compound 0.2 µM,0.758
same,relative viability,NCI-H2126; first compound 0.6325 µM,0.672
same,relative viability,NCI-H2126; first compound 2 µM,0.732
same,relative viability,NCI-H2126; first compound 6.325 µM,0.657
same,relative viability,NCI-H2126; first compound 20 µM,0.466
same,relative viability,LCLC-103H; first compound 0.2 µM,0.467
same,relative viability,LCLC-103H; first compound 0.6325 µM,0.422
same,relative viability,LCLC-103H; first compound 2 µM,0.468
same,relative viability,LCLC-103H; first compound 6.325 µM,0.435
same,relative viability,LCLC-103H; first compound 20 µM,0.304
same,relative viability,NCI-H727; first compound 0.2 µM,0.619
same,relative viability,NCI-H727; first compound 0.6325 µM,0.712
same,relative viability,NCI-H727; first compound 2 µM,0.599
same,relative viability,NCI-H727; first compound 6.325 µM,0.552
same,relative viability,NCI-H727; first compound 20 µM,0.338
same,relative viability,NCI-H3122; first compound 0.2 µM,1.04
same,relative viability,NCI-H3122; first compound 0.6325 µM,1.11
same,relative viability,NCI-H3122; first compound 2 µM,0.904
same,relative viability,NCI-H3122; first compound 6.325 µM,0.398
same,relative viability,NCI-H3122; first compound 20 µM,0.175
same,relative viability,NCI-H2405; first compound 0.2 µM,0.638
same,relative viability,NCI-H2405; first compound 0.6325 µM,0.666
same,relative viability,NCI-H2405; first compound 2 µM,0.637
same,relative viability,NCI-H2405; first compound 6.325 µM,0.553
same,relative viability,NCI-H2405; first compound 20 µM,0.434
same,relative viability,NCI-H661; first compound 0.2 µM,0.756
same,relative viability,NCI-H661; first compound 0.6325 µM,0.684
same,relative viability,NCI-H661; first compound 2 µM,0.636
same,relative viability,NCI-H661; first compound 6.325 µM,0.534
same,relative viability,NCI-H661; first compound 20 µM,0.31
same,relative viability,HARA; first compound 0.2 µM,0.503
same,relative viability,HARA; first compound 2 µM,0.547
same,relative viability,HARA; first compound 6.325 µM,0.166
same,relative viability,HARA; first compound 20 µM,0.0624
same,relative viability,LOU-NH91; first compound 0.2 µM,0.721
same,relative viability,LOU-NH91; first compound 0.6325 µM,0.692
same,relative viability,LOU-NH91; first compound 2 µM,0.64
same,relative viability,LOU-NH91; first compound 6.325 µM,0.694
same,relative viability,LOU-NH91; first compound 20 µM,0.635
same,relative viability,HOP-62; first compound 0.2 µM,0.848
same,relative viability,HOP-62; first compound 0.6325 µM,0.912
same,relative viability,HOP-62; first compound 2 µM,0.789
same,relative viability,HOP-62; first compound 6.325 µM,0.666
same,relative viability,HOP-62; first compound 20 µM,0.19
same,relative viability,SK-LU-1; first compound 0.2 µM,0.394
same,relative viability,SK-LU-1; first compound 0.6325 µM,0.389
same,relative viability,SK-LU-1; first compound 2 µM,0.41
same,relative viability,SK-LU-1; first compound 6.325 µM,0.316
same,relative viability,SK-LU-1; first compound 20 µM,0.325
same,relative viability,NCI-H2228; first compound 0.2 µM,0.773
same,relative viability,NCI-H2228; first compound 0.6325 µM,0.502
same,relative viability,NCI-H2228; first compound 2 µM,0.653
same,relative viability,NCI-H2228; first compound 6.325 µM,0.217
same,relative viability,NCI-H2228; first compound 20 µM,0.137
same,relative viability,NCI-H1975; first compound 0.2 µM,0.704
same,relative viability,NCI-H1975; first compound 0.6325 µM,0.734
same,relative viability,NCI-H1975; first compound 2 µM,0.584
same,relative viability,NCI-H1975; first compound 6.325 µM,0.36
same,relative viability,NCI-H1975; first compound 20 µM,0.336
same,relative viability,PC-3 [JPC-3]; first compound 0.2 µM,0.749
same,relative viability,PC-3 [JPC-3]; first compound 0.6325 µM,0.733
same,relative viability,PC-3 [JPC-3]; first compound 2 µM,0.647
same,relative viability,PC-3 [JPC-3]; first compound 6.325 µM,0.657
same,relative viability,PC-3 [JPC-3]; first compound 20 µM,0.545
same,relative viability,NCI-H650; first compound 0.2 µM,0.563
same,relative viability,NCI-H650; first compound 0.6325 µM,0.414
same,relative viability,NCI-H650; first compound 2 µM,0.484
same,relative viability,NCI-H650; first compound 6.325 µM,0.533
same,relative viability,NCI-H650; first compound 20 µM,0.36
same,relative viability,HCC-827; first compound 0.2 µM,0.758
same,relative viability,HCC-827; first compound 0.6325 µM,0.775
same,relative viability,HCC-827; first compound 2 µM,0.695
same,relative viability,HCC-827; first compound 6.325 µM,0.529
same,relative viability,HCC-827; first compound 20 µM,0.187
same,relative viability,SW 900; first compound 0.2 µM,0.54
same,relative viability,SW 900; first compound 0.6325 µM,0.789
same,relative viability,SW 900; first compound 2 µM,0.703
same,relative viability,SW 900; first compound 6.325 µM,0.441
same,relative viability,SW 900; first compound 20 µM,0.191
same,relative viability,COR-L 105; first compound 0.2 µM,0.733
same,relative viability,COR-L 105; first compound 0.6325 µM,0.725
same,relative viability,COR-L 105; first compound 2 µM,0.596
same,relative viability,COR-L 105; first compound 6.325 µM,0.582
same,relative viability,COR-L 105; first compound 20 µM,0.552
same,relative viability,H3255; first compound 0.2 µM,0.596
same,relative viability,H3255; first compound 0.6325 µM,0.575
same,relative viability,H3255; first compound 2 µM,0.572
same,relative viability,H3255; first compound 6.325 µM,0.519
same,relative viability,H3255; first compound 20 µM,0.313
same,relative viability,ChaGo-K-1; first compound 0.2 µM,0.597
same,relative viability,ChaGo-K-1; first compound 0.6325 µM,0.433
same,relative viability,ChaGo-K-1; first compound 2 µM,0.535
same,relative viability,ChaGo-K-1; first compound 6.325 µM,0.387
same,relative viability,ChaGo-K-1; first compound 20 µM,0.159
